This assay has as its system dunaliella tertiolecta. Kind of assay: growth inhibition test (72 h) using microalgae, ecotoxicity evaluation. In kind it is cell-based. The conditions noted are these: 20° C. The procedure:
The used microalgae 1 is dunaliella tertiolecta, and when exposed to stress (toxicity), transforms the state from the original form 51 into a cyst form 61 and loses mobility.
Acetone was used as a toxic substance. In a test method using an exponential formula, the temperature was maintained at 20° C., and the Irradiation was continuously performed using a white fluorescent lamp with an illuminance of 6,000 to 7,000 lx.
Three replicated plots were inoculated with an initial concentration of 20,000 cells/mL, and the shaking speed was set to 100 r/min. Non-toxic filtered seawater containing nutrient medium was used as a dilution water, and growth inhibition was analyzed for 72 hours.
The experimental conditions in examples of the ecotoxicity evaluation analysis device 100 installed with the microalgae image analysis program therein according to the present invention and the analysis method using the same are shown in Table 2.
Referring to FIG. 5, in an example of the microalgae analysis method using the ecotoxicity evaluation analysis device 100 installed with the microalgae image analysis program therein according to the present invention, the performance of the technology of the present invention was verified using representative SR chamber and hemocytometer of the microalgae analysis method as controls. Here, the concentration of the microalgae 1 contained in the sample was analyzed every 24 hours. Cells were dyed in the two controls, whereas measurements were performed without dyeing the cells in the present technology. In the controls, a microscope (200×) was used, and a microalgae 1 counting was performed manually by an experienced expert.
Referring to FIG. 6, a growth inhibition test using microalgae 1 is performed to obtain a 50% effective concentration (EC50) of a toxic substance. The 50% effective concentration is treated as an important data base for various toxicity analysis. […]

`CC(C)=O` [acetone]: the “50% effective concentration (EC50)” value was found to be 25.6 mL/L (counting by SR chamber (manual, microscope, dyed cells)); 24.2 mL/L (counting by developed analyzer (present invention technology, CMOS shadow image, no dyeing)); 24.9 mL/L (counting by hemocytometer (manual, microscope, dyed cells)).

These data come from patent US11526981B2, “Ecotoxicity evaluation analyzing device including microalgae image analysis program installed therein, and method thereof” (KOREA INSTITUTE OF OCEAN SCIENCE & TECHNOLOGY, priority 2017, dated 2022).
